Results from patent US6548715B1, “Structural analogues of vitamin D” (Laboratoire Theramex S.A., priority 1993, dated 2003).

Assays:
[1] = molecular target: T1, human DBP (vitamin D binding protein) (Homo sapiens, UniProt P02774); test: Relative affinity for purified human vitamin D-binding protein (hDBP); conditions: % of the activity of 1α,25-(OH)2D3 at 50% of its activity (B50)
T1 sequence (P02774 17-474): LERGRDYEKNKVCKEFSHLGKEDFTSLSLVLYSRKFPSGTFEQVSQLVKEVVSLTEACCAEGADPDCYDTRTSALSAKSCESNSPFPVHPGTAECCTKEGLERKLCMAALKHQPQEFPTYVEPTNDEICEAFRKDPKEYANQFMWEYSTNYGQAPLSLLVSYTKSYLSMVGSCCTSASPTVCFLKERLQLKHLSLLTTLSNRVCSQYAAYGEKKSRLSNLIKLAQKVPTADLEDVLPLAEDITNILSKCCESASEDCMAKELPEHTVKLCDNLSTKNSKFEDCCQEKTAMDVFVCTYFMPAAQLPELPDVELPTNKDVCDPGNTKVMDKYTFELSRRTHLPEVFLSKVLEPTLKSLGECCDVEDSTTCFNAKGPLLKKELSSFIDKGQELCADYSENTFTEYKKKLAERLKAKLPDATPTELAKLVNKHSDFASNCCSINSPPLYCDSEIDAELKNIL

HL-60 cells = test: HL-60 cell differentiation (NBT reduction); format: cell-based; conditions: % of the activity of 1α,25-(OH)2D3 at 50% of its activity (B50); human leukemia cells
Experimental: (§1) HL-60 cells were seeded at 1.2×10^5 cells/ml and 1α,25-(OH)2D3 or its anologs were added in ethanol (final concentration <0.2%) in RPMI 1640 medium supplemented with 10% heat-inactivated fetal calf serum (FCS) for 4 d at 37° C. Cells were then assayed for maturation by NBT reduction assay as described (22) using a hemacytometer, or for proliferation by cell counting and [^3H] thymidine incorporation. MG 63 cells, seeded at 5×10^3 cells/ml in 96 well flat bottomed culture plates (Falcon, Becton Dickinson, N.J.) in a volume of 0.2 ml of DMEM and 2% FCS, were incubated with 1α,25-(OH)2D3 or its analogues for 72 h. Osteocalcin was then measured in the culture medium using a homologous human osteocalcin RIA (39). Breast carcinoma cells (MCF-7 or GR) were grown in DMEM/nut.mix F-12 (HAM) medium supplemented with 10% FCS. Cells (5000/Well) were incubated during 24 h in 96 well tissue culture plates (Falcon 3072) followed by a 72 h incubation with/without 1α,25-(OH)2D3 or analogues. The cells were then incubated with [^3H]thymidine (1 μCi/well) for 4 h and harvested thereafter in NaOH (0.1 M) and the radioactivity counted. The protein content of the cells was measured by the Pierce BCA protein assay (Rockford, Ill.).

[2] = test system: vitamin D-deficient chicks; test: Calcemic effect in vitamin D-deficient chicks (serum calcium); format: in vivo, chick; conditions: % of the activity of 1α,25-(OH)2D3 at 50% of its activity (B50); vitamin D-deficient chicks injected 10 consecutive days
Experimental: The antirachitic activity of the analogues was tested in 3 weeks old vitamin D-deficient chicks injected for 10 consecutive days with 1α,25-(OH)2D3 or its analogues (22,23). Serum calcium (by atomic absorptiometry) and osteocalcin (by specific RIA), duodenal calbindin D-28K (by RIA) and bone calcium content were measured. The hypercalcemic effect of the most interesting anologues was also tested in vitamin D-replete normal NMRI mice by daily sc injection of 1α,25-(OH)2D3, its analogues or the solvent for 7 consecutive days, using serum, bone and urinary calcium excretion and serum osteocalcin (by specific mouse RIA) as parameters (40).

vitamin D receptor = molecular target: T2, vitamin D receptor (Sus scrofa, UniProt A3RGC1); conditions: % of the activity of 1α,25-(OH)2D3 at 50% of its activity (B50); 1α,25-(OH)2D3 assigned 100%
T2 sequence (A3RGC1 1-427): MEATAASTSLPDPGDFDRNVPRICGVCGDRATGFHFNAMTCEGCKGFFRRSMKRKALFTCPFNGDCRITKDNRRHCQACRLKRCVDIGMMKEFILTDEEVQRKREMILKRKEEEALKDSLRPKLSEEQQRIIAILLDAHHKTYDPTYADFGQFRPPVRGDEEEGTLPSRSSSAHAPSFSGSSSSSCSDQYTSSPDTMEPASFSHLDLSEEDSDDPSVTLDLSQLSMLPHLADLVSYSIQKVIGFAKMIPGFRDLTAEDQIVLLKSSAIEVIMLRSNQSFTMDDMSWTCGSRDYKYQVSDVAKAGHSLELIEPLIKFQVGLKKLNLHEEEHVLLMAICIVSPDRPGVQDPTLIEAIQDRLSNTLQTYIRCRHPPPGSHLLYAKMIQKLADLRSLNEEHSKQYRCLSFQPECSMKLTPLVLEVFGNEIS

MG-63 cells = test: MG-63 osteosarcoma cells, osteocalcin secretion; format: cell-based; conditions: % of the activity of 1α,25-(OH)2D3 at 50% of its activity (B50); human osteosarcoma cells
Experimental: as §1

MCF-7 cells = test: MCF-7 breast cancer cell proliferation ([3H]thymidine incorporation); format: cell-based; conditions: % of the activity of 1α,25-(OH)2D3 at 50% of its activity (B50); human breast cancer cells
Experimental: as §1

Structure (SMILES) | Affinity for human DBP [1] | Ca serum chick [2] | Affinity for pig receptor (vitamin D receptor) | Cell differentation/cell proliferation HL-60 (HL-60 cells) | Cell differentation/cell proliferation MG-63 (MG-63 cells) | Cell differentation/cell proliferation MCF-7 (MCF-7 cells)
CC(CCCC(C)(C)O)C(C)C1(C)CCCC(=CC=C2CC(O)CC(O)C2)C1 (centres unmarked) [Compound 8] | 3% | <0.1% | 45% | >1000% | 300% | 3000%
C=C1C(=CC=C2CCCC3C2CCC3C(C)CCCC(C)(C)O)CC(O)CC1O (centres unmarked) [Compound 3] | 10% | – | 100% | 720% | 75% | –
C=C1C(=CC=CCC2(C)CCC(CCCCC(C)(C)O)C2(C)C)CC(O)CC1O (centres unmarked) [Compound 19] | 50% | – | 13% | 10% | 30% | –
CC(CCCC(C)(C)O)C1CCC2C(=CC=C3CC(O)CC(O)C3)CCC(O)C21 (centres unmarked) [Compound 2] | 0% | – | 0% | 75% | 4.5% | –
C=C1/C(=C\C=C2/CCC[C@](C)([C@H](C)[C@H](C)CCCC(C)(C)O)C2)C[C@@H](O)C[C@@H]1O [Compound 7] | 20% | 5% | 60% | 1000% | 700% | 6000%

Continued, in another order:

Affinity for human DBP [1] | Ca serum chick [2] | Affinity for pig receptor (vitamin D receptor) | Structure (SMILES) | Cell differentation/cell proliferation HL-60 (HL-60 cells) | Cell differentation/cell proliferation MG-63 (MG-63 cells) | Cell differentation/cell proliferation MCF-7 (MCF-7 cells)
2% | 2% | 80% | C=C1/C(=C\C=C\[C@@H]2CC[C@](C)(CCCCC(O)(CC)CC)C2(C)C)C[C@@H](O)C[C@@H]1O [Compound 38] | 100% | – | –
8% | – | 28% | C=C1C(=CC=CCC2(C)CCC(CCCCC(O)(CC)CC)C2(C)C)CC(O)CC1O (centres unmarked) [Compound 20] | 75% | 30% | –
0% | 0.3% | 30% | CCC(O)(CC)CCCCC(C)C1CCC2C(=CC=C3CC(O)CC(O)C3)CCCC21C (centres unmarked) [Compound 55] | 65% | 3% | –
70% | – | – | C=C1C(=CC=CC2CCCC(C(C)CCCC(C)(C)O)C2(C)C)CC(O)CC1O (centres unmarked) [Compound 56] | 100% | – | –
1% | 0.4% | 20% | CC(CCCCC(C)(C)O)C1CCC2C(=CC=C3CC(O)CC(O)C3)CCCC21C (centres unmarked) [Compound 54] | 30% | 10% | –
1.5% | 1% | 2.5% | CC(CC#CC1(C)CO1)C1CCC2C(=CC=C3CC(O)CC(O)C3)CCCC21C (mixture of isomers) [Compound 45] | 80% | 10% | 20%
